Experimental data from patent publication US20120258938A1, “Enzymatic Production or Chemical Synthesis and Uses for 5,7-Dienes and UVB Conversion Products Thereof” (priority 2008, published 2012).

What was measured:
HaCaT keratinocytes = assay: Colony forming (clonogenicity) assay in HaCaT keratinocytes; type: cell-based, human; conditions: 10 days
Method: HaCaT and human adult epidermal keratinocytes were cultured and DNA synthesis experiments were performed as described previously (26). Cells were plated in 6-well plates at a density of 20 cells/cm^2 in DMEM (Cellgro, Herndon Va.) containing 5% charcoal-treated fetal bovine serum (Hyclone, Logan, Utah), 1% antibiotic solution (PSA, Sigma, St. Louis, […].) and vehicle or secosteroids. Cells were incubated in 37° C. for 10 days with media being changed every 72 hr. Cells were fixed with 4% paraformaldehyde in PBS overnight, stained with 0.5% crystal violet in PBS for 15 min, rinsed and air-dried. The number and size of the colonies were measured using an ARTEK counter 880 (Dynex Technologies Inc., Chantilly, Va.). Colony forming units were calculated as follows: number of colonies (size>0.5 mm) was divided by the number of cells plated and multiplied by 100.

type I collagen = assay: Type I collagen ELISA, TGF-b1 stimulated skin fibroblasts; type: cell-based; conditions: human skin fibroblasts
Method: Additional studies using human skin fibroblasts were performed employing a type I collagen specific ELISA Chondrex, and real time RT PCR to quantitate type I collagen protein and Col1A1 mRNA expression in culture of human fibroblast stimulated by TGF-b1 in the presence and absence of 17,20S(OH)2pD3 and/or 20(OH)D3. These studies confirmed that Type I collagen protein production that was induced by TGF-b1 and that Col1A1 mRNA that was induced by TGF-b1 were suppressed by these analogues (FIGS. 44A-44B).

rat CYP24 = molecular target: T1, rat CYP24 (Rattus norvegicus, UniProt Q09128); assay: Metabolism by rat CYP24 in phospholipid vesicles
T1 sequence (Q09128 36-514): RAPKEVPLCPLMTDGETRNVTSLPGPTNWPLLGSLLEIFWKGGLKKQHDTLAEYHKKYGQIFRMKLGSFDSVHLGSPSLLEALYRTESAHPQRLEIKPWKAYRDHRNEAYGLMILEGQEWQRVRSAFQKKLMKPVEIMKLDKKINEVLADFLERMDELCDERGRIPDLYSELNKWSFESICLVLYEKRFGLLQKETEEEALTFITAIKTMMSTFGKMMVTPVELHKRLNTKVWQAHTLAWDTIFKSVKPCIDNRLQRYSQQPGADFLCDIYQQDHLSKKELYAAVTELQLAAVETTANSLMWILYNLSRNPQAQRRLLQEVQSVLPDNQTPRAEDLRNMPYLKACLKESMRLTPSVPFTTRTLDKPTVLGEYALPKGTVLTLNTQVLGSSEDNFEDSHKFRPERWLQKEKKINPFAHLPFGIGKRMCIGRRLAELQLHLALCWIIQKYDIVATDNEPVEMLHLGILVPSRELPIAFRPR
Method: Samples (typically 0.25-1.0 mL) were incubated at 37° C., with shaking, then reactions terminated by the addition of 2.5 mL ice-cold dichloromethane and vortexing. After phase separation aided by centrifugation, the lower organic phase was retained and the upper aqueous phase was extracted twice more with 2.5 mL aliquots of dichloromethane. The dichloromethane was removed under nitrogen and the residual sample dissolved in solvent for HPLC analysis.
To test enzymatic metabolism of 20S(OH)D3 and 20R(OH)D3, the substrates were incorporated into phospholipid vesicles with the ratio of substrate to phospholipid being 0.025 mol/mol phospholipid. Vesicles were incubated with 2 μM bovine CYP11A1 or 0.06 μM human CYP27B1 for up to 10 min. To test enzymatic metabolism of 20(OH)D3 in CYP24, the substrate was incorporated into phospholipids vesicles with 0.15-0.5 μM CYP24. To test enzymatic metabolism of 20(OH)D3 in CYP27A1, purified CYP27A1 was preincubated with the vesicles for 6 min at 37° C. Adrenodoxin was added last to initiate the reaction. For kinetic experiments, the incubations were typically 0.5 mL and were carried out over the initial linear period of the reaction (10 min for vitamin D3 and cholesterol and 30 min for 20(OH)D3).

PC-3 = assay: Flow cytometry cell cycle and subG1, PC-3; type: cell-based, human; conditions: PC-3, 24 h
Method: (§1) MD-MBA-231, MG-63, PC-3, and WM164 cells were seeded into Petri dishes and then incubated for 24 h with 20-hydroxycholecalciferol in DMEM medium containing 5% FBS. Then cells were fixed, DNA stained and samples read with flow cytometer as described (7). Data was analyzed with Cell Quest (BD Biosciences). Cell cycle phases were assessed in viable cell populations and subG1 contents were calculated within whole cell population.

MG-63 = assay: Flow cytometry cell cycle and subG1, MG-63; type: cell-based, human; conditions: MG-63, 24 h
Method: as §1

[1] = test system: human radial growth phase amelanotic melanoma WM35 cells; assay: Viability of WM35 melanoma cells; type: cell-based; conditions: WM35, 24 h
Method: Cells were seeded in 96-well plate and incubated with 20-hydroxycholecalciferol in DMEM medium containing 5% FBS for 48 h (FIG. 25A) or 72 h (FIG. 25C) or for 24 h after a 12 h synchronization in serum free medium (FIG. 25D). […] was added for a final 18 h (FIGS. 25A, 25D) or 12 h (FIG. 25C) of incubation or cells were assessed with sulforhodamine assay (FIG. 25C). Data is shown as mean±SEM (n=5; FIG. 24C) or mean±SEM (n=6; FIGS. 24A, 24C, 24D) and was analyzed using GraphPrism 4.0.

NFκB = assay: NFκB-Luc reporter in HaCaT keratinocytes; type: cell-based, human; conditions: 100 nM
Method: HaCaT keratinocytes were transfected with NFκB-Luc construct using Lipofectamine Plus (Invitrogen, Carlsbad, Calif.) in DMEM medium with firefly luciferase reporter gene plasmid and with phRL-TK (expresses Renilla luciferase and serves as normalization control; Promega, Madison, Wis.). After transfection cells were incubated for 24 h in complete medium, and then after change to fresh media treated with drug or vehicle (ethanol) at the concentration of 10 nM for 30 minutes, 1 h, 4 h, 16 h and 24 h. The firefly luciferase and Renilla luciferase signals were recorded with a TD-20/20 luminometer (Turner Designs, Sunnyvale, Calif.); background luminescence was subtracted and the resulting promoter specific firefly signal was divided by the Renilla signal (proportional to the number of transfected cells). The values obtained were divided by the mean of control (untreated) cells.

Compound `C=C1/C(=C\C=C2/CCC[C@]3(C)[C@@H]([C@H](C)CCCC(C)(C)O)CC[C@@H]23)C[C@@H](O)C[C@@H]1O` [1α,25-dihydroxycholecalciferol, (5Z,7E)-9,10-secocholesta-5,7,10(19)-triene-1α,3β,25-triol, reference compound] has an inhibition at 0.01 µM (HaCaT keratinocytes; Homo sapiens, HaCaT, 240 h, 10^−8 M, read-out: inhibition of colony formation) of 64%.

`C=C1CC[C@H](O)C/C1=C/C=C1\CCC[C@@]2(C)[C@H]1CC[C@@H]2[C@@](C)(O)CCCC(C)C` [20(OH)D3, (5Z,7E)-9,10-secocholesta-5,7,10(19)-triene-3β,20-diol] was tested, and the “TGF-b1 induced Type I collagen protein production (ELISA)” value (type I collagen) was “suppressed”, the Km (rat CYP24) was 0.028±0.007 mol substrate/mol phospholipid and the kcat/Km (rat CYP24) was 386 min^−1(mol substrate/mol phospholipid)^−1. For the same compound, the kcat (rat CYP24; phospholipid vesicles) was 10.8±0.8 mol/min/mol CYP24, the “kcat/Km lower than for 1,25(OH)2D3” value (rat CYP24; phospholipid vesicles) was 24 fold and the “kcat/Km lower than that for 25(OH)D3” value (rat CYP24; phospholipid vesicles) was 17 fold. The “G0/G1 of viable cells” value (PC-3) was 24%, the “G2/M of viable cells” value (PC-3) was 0 and the “S of viable cells” value (PC-3) was 76%. For the same compound, the “Viable Cells” value (PC-3) was 4, the subG1 (PC-3; whole cell population) was 96 and the “inhibition of colony formation” value (HaCaT keratinocytes; 10^−7 M) was 58%. For the same compound, the “inhibition of colony formation” value (HaCaT keratinocytes; 10^−8 M) was 36%, the “G0/G1 of viable cells” value (MG-63) was 52% and the “G2/M of viable cells” value (MG-63) was 15. The “S of viable cells” value (MG-63) was 33%, the “Viable Cells” value (MG-63) was 18 and the subG1 (MG-63; whole cell population) was 82. The “concentration above which viability started declining” value [1] was “greater than 1×10^−7 M”.

For `C=C1CC[C@H](O)C/C1=C/C=C1\CCC[C@]2(C)[C@@H](C(C)(O)CC(O)CC(C)C)CC[C@@H]12` (stereo partly drawn) [20,23-dihydroxycholecalciferol, (5Z,7E)-9,10-secocholesta-5,7,10(19)-triene-3β,20,23-triol], the NFκB-Luc activity (NFκB) was “inhibition”.

With `C=C1CC[C@H](O)C/C1=C/C=C1\CCC[C@]2(C)[C@@H](C(C)=O)CC[C@@H]12` [pD3, (5Z,7E)-3β-hydroxy-9,10-secopregna-5,7,10(19)-trien-20-one] the NFκB-Luc activity (NFκB) was “inhibits NFκB-Luc activity”.
